Structures can show the parent of a compound that is named as a salt. Where two headings read alike, the source gives them in different places.
What was measured:
[1] = test system: NCI-H292 lung cancer cells; test: FDA drug screening, complete media vs cholesterol-free media with simvastatin (TABLE 2); type: cell-based, human
[2] = test system: NCI-H292 lung cancer cells; test: FDA drug screening, complete media vs cholesterol-free media without statin (TABLE 1); type: cell-based, human
[3] = NCI-H292 cells, cholesterol-free media with simvastatin 0.04 μM, FDA drug library screen (TABLE 2)
[4] = NCI-H292 cells, complete media, FDA drug library screen (TABLE 2)
[5] = NCI-H292 cells, cholesterol-free media without statin
[6] = NCI-H292 cells, FDA drug library screen, complete media
[7] = complete media minus cholesterol-free media + simvastatin, >0 enhanced anti-cancer activity, about 0 neutral, <0 antagonist
[8] = complete vs cholesterol-free media, greater than 0 enhanced anti-cancer activity, about 0 neutral, below 0 antagonists
[9] = NCI-H292 cells, FDA drug library screen, cholesterol-free media with simvastatin 0.04 μM
[10] = NCI-H292 cells, cholesterol-free media with simvastatin 0.04 μM, cell growth value in FDA drug screen
[11] = NCI-H292 cells, complete media, cell growth value in FDA drug screen
[12] = NCI-H292 cells, FDA library drug in cholesterol-free media with simvastatin 0.04 μM
[13] = NCI-H292 cells, FDA library drug in complete media
[14] = complete media vs cholesterol-free media + simvastatin (0.04 μM), >0 enhanced anti-cancer activity, about 0 neutral, <0 antagonist
[15] = NCI-H292 cells, cholesterol-free media without statin, FDA drug library screen
[16] = NCI-H292 cells, complete media, FDA drug library screen
[17] = complete vs cholesterol-free media, >0 enhanced anti-cancer activity, about 0 neutral, <0 antagonist
[18] = Complete minus Cholesterol-free, >0 enhanced anti-cancer activity, about 0 neutral, <0 antagonist
[19] = Complete minus Cholesterol-free, greater than 0 enhanced anti-cancer activity, about 0 neutral, below 0 antagonist
[20] = NCI-H292 cells, FDA drug library screen, cholesterol-free media without statin
[21] = Complete minus Cholesterol-free, greater than 0 enhanced anti-cancer activity, about 0 neutral, below 0 antagonists
[22] = NCI-H292 cells in cholesterol-free media without statin
[23] = NCI-H292 cells in complete media
[24] = NCI-H292 cells, drug in cholesterol-free media with simvastatin 0.04 μM
[25] = NCI-H292 cells, drug in complete media
[26] = complete media minus cholesterol-free media + simvastatin (0.04 μM), >0 enhanced anti-cancer activity, about 0 neutral, <0 antagonist

Compound: C=C1C[C@H]2[C@@H]3CCC4=CC(=O)CC[C@@H]4[C@H]3CC[C@]2(C)[C@@]1(OC(C)=O)C(C)=O [Nestoron]
- Cholesterol-free media + simvastatin (0.04 μM) [1, 3]: 0.9628
- Complete Media [1, 4]: 0.9132
- Difference ([1]; complete media minus cholesterol-free media + simvastatin (0.04 μM), […]): −0.05
- Cholesterol-free [2, 5]: 1.481
- Complete ([2]; NCI-H292 cells, complete media): 1.095
- Difference ([2]; complete vs cholesterol-free media, […]): −0.39

Compound: CCCCCOc1ccccc1/C(=C\SC)n1ccnc1 [Neticonazole (hydrochloride)]
- Complete Media [1, 6]: 0.9839
- Difference [1, 7]: 0.45
- Cholesterol-free [2, 5]: 1.192
- Complete ([2]; NCI-H292 cells, complete media): 0.8359
- Difference [2, 8]: −0.36

Compound: CCN[C@@H]1C[C@H](N)[C@@H](O[C@H]2OC(CN)=CC[C@H]2N)[C@H](O)[C@H]1O[C@H]1OC[C@](C)(O)[C@H](NC)[C@H]1O.CCN[C@@H]1C[C@H](N)[C@@H](O[C@H]2OC(CN)=CC[C@H]2N)[C@H](O)[C@H]1O[C@H]1OC[C@](C)(O)[C@H](NC)[C@H]1O.O=S(=O)(O)O.O=S(=O)(O)O.O=S(=O)(O)O.O=S(=O)(O)O.O=S(=O)(O)O [Netilmicin (sulfate)]
- Cholesterol-free media + simvastatin (0.04 μM) [1, 9]: 1.19
- Complete Media [1, 6]: 1.538
- Difference [1, 7]: 0.35
- Cholesterol-free [2, 5]: 1.778
- Complete ([2]; NCI-H292 cells, complete media): 1.428
- Difference [2, 8]: −0.35

Compound: Cc1ccccc1-c1cc(N2CCN(C)CC2)ncc1N(C)C(=O)C(C)(C)c1cc(C(F)(F)F)cc(C(F)(F)F)c1 [Netupitant]
- Cholesterol-free media + simvastatin (0.04 μM) [1, 10]: 0.8546
- Complete Media [1, 11]: 0.9156
- Difference [1, 7]: 0.06
- Cholesterol-free [2, 5]: 1.25
- Complete ([2]; NCI-H292 cells, complete media): 0.915
- Difference [2, 8]: −0.34

Compound: Cc1ccnc2c1NC(=O)c1cccnc1N2C1CC1 [Nevirapine]
- Cholesterol-free media + simvastatin (0.04 μM) [1, 12]: 1.384
- Complete Media [1, 13]: 0.9254
- Difference [1, 14]: −0.46
- Cholesterol-free [2, 15]: 0.7658
- Complete [2, 16]: 1.137
- Difference [2, 17]: 0.37

Compound: O=C(O)c1cccnc1 [Niacin]
- Cholesterol-free media + simvastatin (0.04 μM) [1, 10]: 1.244
- Complete Media [1, 11]: 1.362
- Difference [1, 7]: 0.12
- Difference [2, 18]: −0.27
- Cholesterol-free [2, 5]: 1.266
- Complete ([2]; NCI-H292 cells, complete media): 0.9994

Compound: COC(=O)C1=C(C)NC(C)=C(C(=O)OCCN(C)Cc2ccccc2)C1c1cccc([N+](=O)[O-])c1 (stereo not shown) [Nicardipine (hydrochloride)]
- Cholesterol-free media + simvastatin (0.04 μM) [1, 12]: 1.292
- Complete Media [1, 13]: 0.8256
- Difference [1, 14]: −0.47
- Difference [2, 18]: −0.01
- Cholesterol-free [2, 15]: 0.9198
- Complete [2, 16]: 0.9062

Compound: CO[C@]12C[C@@H](COC(=O)c3cncc(Br)c3)CN(C)[C@@H]1Cc1cn(C)c3cccc2c13 [Nicergoline]
- Cholesterol-free media + simvastatin (0.04 μM) [1, 12]: 1.053
- Complete Media [1, 13]: 0.4708
- Difference [1, 14]: −0.58
- Cholesterol-free [2, 15]: 0.9355
- Complete [2, 16]: 1.445
- Difference [2, 17]: 0.51

Compound: O=C(Nc1ccc([N+](=O)[O-])cc1Cl)c1cc(Cl)ccc1O [Niclosamide]
- Cholesterol-free media + simvastatin (0.04 μM) [1, 9]: 0.365
- Complete Media [1, 6]: 1.031
- Difference [1, 7]: 0.67
- Cholesterol-free [2, 5]: 0.9593
- Complete ([2]; NCI-H292 cells, complete media): 0.6271
- Difference [2, 8]: −0.33

Compound: O=C(NCCO[N+](=O)[O-])c1cccnc1 [Nicorandil]
- Cholesterol-free media + simvastatin (0.04 μM) [1, 10]: 0.9809
- Complete Media [1, 11]: 1.055
- Difference [1, 7]: 0.07
- Cholesterol-free [2, 15]: 0.8284
- Complete [2, 16]: 1.354
- Difference [2, 17]: 0.53

Compound: NC(=O)c1cccnc1 [Nicotinamide]
- Cholesterol-free media + simvastatin (0.04 μM) [1, 9]: 0.9853
- Complete Media [1, 6]: 0.9029
- Difference [1, 14]: −0.08
- Difference [2, 19]: −0.17
- Cholesterol-free [2, 20]: 0.8882
- Complete [2, 6]: 0.716

Compound: COC(=O)C1=C(C)NC(C)=C(C(=O)OC)C1c1ccccc1[N+](=O)[O-] [Nifedipine]
- Cholesterol-free media + simvastatin (0.04 μM) [1, 9]: 1.819
- Complete Media [1, 6]: 1.696
- Difference [1, 14]: −0.12
- Difference [2, 21]: −0.53
- Cholesterol-free [2, 22]: 1.45
- Complete [2, 23]: 0.9229

Compound: Cc1c(NC(=O)c2cccnc2)c(=O)n(-c2ccccc2)n1C [Nifenazone]
- Cholesterol-free media + simvastatin (0.04 μM) [1, 10]: 0.9965
- Complete Media [1, 11]: 1.032
- Difference [1, 7]: 0.04
- Difference [2, 21]: −0.66
- Cholesterol-free [2, 22]: 1.466
- Complete [2, 23]: 0.8088

Compound: O=C(O)c1cccnc1Nc1cccc(C(F)(F)F)c1 [Niflumic acid]
- Cholesterol-free media + simvastatin (0.04 μM) [1, 12]: 0.9955
- Complete Media [1, 13]: 0.2879
- Difference [1, 14]: −0.71
- Cholesterol-free [2, 15]: 0.872
- Complete [2, 16]: 1.486
- Difference [2, 17]: 0.61

Compound: CSCC1CN(/N=C/c2ccc([N+](=O)[O-])o2)C(=O)O1 (stereo not shown) [Nifuratel]
- Cholesterol-free media + simvastatin (0.04 μM) [1, 12]: 1.397
- Complete Media [1, 13]: 1.12
- Difference [1, 14]: −0.28
- Difference [2, 18]: −0.23
- Cholesterol-free [2, 5]: 1.253
- Complete ([2]; NCI-H292 cells, complete media): 1.019

Compound: O=C(N/N=C/c1ccc([N+](=O)[O-])o1)c1ccc(O)cc1 [Nifuroxazide]
- Cholesterol-free media + simvastatin (0.04 μM) [1, 10]: 1.161
- Complete Media [1, 11]: 1.265
- Difference [1, 7]: 0.10
- Difference [2, 18]: −0.04
- Cholesterol-free [2, 15]: 0.9553
- Complete [2, 16]: 0.9139

Compound: CC1CS(=O)(=O)CCN1/N=C/c1ccc([N+](=O)[O-])o1 (stereo not shown) [Nifurtimox]
- Cholesterol-free media + simvastatin (0.04 μM) [1, 24]: 1.357
- Complete Media [1, 25]: 1.111
- Difference [1, 14]: −0.25
- Cholesterol-free [2, 5]: 1.443
- Complete ([2]; NCI-H292 cells, complete media): 1.102
- Difference [2, 8]: −0.34

Compound: CCN(CC)C(=O)c1cccnc1 [Nikethamide]
- Cholesterol-free media + simvastatin (0.04 μM) [1, 9]: −0.004932
- Complete Media [1, 6]: 1.43
- Difference [1, 7]: 1.44
- Difference [2, 19]: −0.18
- Cholesterol-free [2, 20]: 1.071
- Complete [2, 6]: 0.8953

Compound: Cc1cn(-c2cc(NC(=O)c3ccc(C)c(Nc4nccc(-c5cccnc5)n4)c3)cc(C(F)(F)F)c2)cn1 [Nilotinib]
- Cholesterol-free media + simvastatin (0.04 μM) [1, 10]: 0.9437
- Complete Media [1, 11]: 0.9791
- Difference [1, 7]: 0.04
- Cholesterol-free [2, 5]: 1.511
- Complete ([2]; NCI-H292 cells, complete media): 1.113
- Difference [2, 8]: −0.40

Compound: CC1(C)NC(=O)N(c2ccc([N+](=O)[O-])c(C(F)(F)F)c2)C1=O [Nilutamide]
- Cholesterol-free media + simvastatin (0.04 μM) [1, 12]: 1.474
- Complete Media [1, 13]: 1.003
- Difference [1, 14]: −0.47
- Difference [2, 21]: −0.63
- Cholesterol-free [2, 22]: 1.565
- Complete [2, 23]: 0.9342

Compound: COC(=O)C1=C(C#N)NC(C)=C(C(=O)OC(C)C)C1c1cccc([N+](=O)[O-])c1 (stereo not shown) [Nilvadipine]
- Cholesterol-free media + simvastatin (0.04 μM) [1, 24]: 1.579
- Complete Media [1, 25]: 1.393
- Difference [1, 14]: −0.19
- Difference [2, 18]: −0.27
- Cholesterol-free [2, 5]: 1.059
- Complete ([2]; NCI-H292 cells, complete media): 0.7875

Compound: CS(=O)(=O)Nc1ccc([N+](=O)[O-])cc1Oc1ccccc1 [Nimesulide]
- Cholesterol-free media + simvastatin (0.04 μM) [1, 9]: 0.9827
- Difference [1, 7]: 0.17
- Difference [2, 18]: −0.26
- Cholesterol-free [2, 5]: 1.157
- Complete ([2]; NCI-H292 cells, complete media): 0.8983

Compound: COCCOC(=O)C1=C(C)NC(C)=C(C(=O)OC(C)C)C1c1cccc([N+](=O)[O-])c1 (stereo not shown) [Nimodipine]
- Cholesterol-free media + simvastatin (0.04 μM) [1, 3]: 1.215
- Complete Media [1, 4]: 1.187
- Difference [1, 26]: −0.03
- Cholesterol-free [2, 5]: 1.269
- Complete ([2]; NCI-H292 cells, complete media): 0.8907
- Difference [2, 8]: −0.38

Compound: O=[N+]([O-])c1cncn1CCN1CCOCC1 [Nimorazole]
- Cholesterol-free media + simvastatin (0.04 μM) [1, 24]: 1.022
- Complete Media [1, 25]: 0.8004
- Difference [1, 14]: −0.22
- Cholesterol-free [2, 15]: 0.576
- Complete [2, 16]: 0.9886
- Difference [2, 17]: 0.41

Compound: Cc1ncc(CNC(=O)N(CCCl)N=O)c(N)n1 [Nimustine (hydrochloride)]
- Cholesterol-free media + simvastatin (0.04 μM) [1]: 1.194
- Complete Media [1]: 1.026
- Difference [1]: −0.17
- Cholesterol-free [2]: 1.02
- Complete [2]: 1.016
- Difference [2]: 0.00

Compound: COC(=O)c1ccc2c(c1)NC(=O)/C2=C(\Nc1ccc(N(C)C(=O)CN2CCN(C)CC2)cc1)c1ccccc1 [Nintedanib esylate]
- Cholesterol-free media + simvastatin (0.04 μM) [1, 3]: 0.7218
- Complete Media [1, 4]: 0.6577
- Difference [1, 26]: −0.06
- Difference [2, 18]: 0.02
- Cholesterol-free [2, 15]: 0.5114
- Complete [2, 16]: 0.5279

Compound: COC(=O)c1ccc2c(c1)NC(=O)/C2=C(\Nc1ccc(N(C)C(=O)CN2CCN(C)CC2)cc1)c1ccccc1 [Nintedanib]
- Cholesterol-free media + simvastatin (0.04 μM) [1, 3]: 0.7141
- Complete Media [1, 4]: 0.7297
- Difference [1, 26]: 0.02
- Difference [2, 19]: −0.17
- Cholesterol-free [2, 20]: 0.7067
- Complete [2, 6]: 0.5362

Compound: NC(=O)c1cccc2cn(-c3ccc([C@@H]4CCCNC4)cc3)nc12 [Niraparib (hydrochloride)]
- Cholesterol-free media + simvastatin (0.04 μM) [1, 10]: 0.7422
- Complete Media [1, 11]: 0.838
- Difference [1, 7]: 0.10
- Difference [2, 21]: −0.48
- Cholesterol-free [2, 22]: 1.435
- Complete [2, 23]: 0.9534

Source: patent publication US20250144067A1, “PERSONALIZED STARVATION THERAPY FOR CANCER” (Faeth Therapeutics, Inc., priority 2021, published 2025)
